Results as given in ChEMBL document CHEMBL1149957, “MALONIC ACID DERIVATIVES AS SIALYL LEWIS X MIMETICS” (Bioorg Med Chem Lett, 1997).

Columns and labels:
HL-60 [1] = assay: Tested for the inhibition of HL60 cell adhesion to recombinant P-selectin-IgG fusion protein measured by cell culture assay.; assay type: functional, cell-based; settings: Homo sapiens
HL-60 [2] = assay: Tested for the inhibition of HL60 cell adhesion to recombinant E-selectin-IgG fusion protein measured by cell culture assay.; assay type: functional, cell-based; settings: Homo sapiens
Rattus norvegicus [3] = assay: Tested for the inhibition of leukocyte adhesion in rat mesenteric venules in vivo at a dose of 10 mg/kg measured by intravital microscopy.; assay type: functional
Rattus norvegicus [4] = assay: Tested for the inhibition of leukocyte adhesion in rat mesenteric venules in vivo at a dose of 3 mg/kg measured by intravital microscopy.; assay type: functional
Rattus norvegicus [5] = assay: Tested for the inhibition of leukocyte adhesion in rat mesenteric venules in vivo at a dose of 1 mg/kg measured by intravital microscopy.; assay type: functional

| SMILES | IC50 (HL-60 [1]) | IC50 (HL-60 [2]) | inhibition in vivo at 10 mg/kg (Rattus norvegicus [3]) | inhibition in vivo at 3 mg/kg (Rattus norvegicus [4]) | inhibition in vivo at 1 mg/kg (Rattus norvegicus [5]) |
| --- | --- | --- | --- | --- | --- |
| CC1OC(OC2CCCCC2OC(=O)NCCC(C(=O)O)C(=O)O)C(O)C(O)C1O (configuration not stated) | 3.5 mM | 3.4 mM | 58% | – | – |
| CC1OC(OC2CCCCC2OCCCCCCCC(C(=O)O)C(=O)O)C(O)C(O)C1O (configuration not stated) | > 5 mM | > 5 mM | – | – | – |
| CC1OC(OC2CCCCC2OCCCCCCCCC(C(=O)O)C(=O)O)C(O)C(O)C1O (configuration not stated) | > 5 mM | > 5 mM | – | – | – |
| CC1OC(OC2C(OCCCCCC(C(=O)O)C(=O)O)CCOC2COCCCCc2ccccc2)C(O)C(O)C1O (configuration not stated) | 1.2 mM | 2.6 mM | – | 65% | – |
| CC1OC(OC2C(OCCCCC(C(=O)O)C(=O)O)CCOC2COCCCCc2ccccc2)C(O)C(O)C1O (configuration not stated) | 3.6 mM | 4.8 mM | – | 62% | – |
| CC(=O)N[C@H]1[C@H]([C@@H](O)[C@@H](O)CO)O[C@@](O[C@@H]2[C@H](O)[C@H](O[C@H]3[C@H](O[C@@H]4O[C@@H](C)[C@@H](O)[C@H](O)[C@@H]4O)[C@H](NC(C)=O)C(O)O[C@H]3CO)O[C@@H](CO)[C@@H]2O)(C(=O)O)C[C@H]1O (some centres not stated) | 3 mM | 1.5 mM | – | – | – |
| CC1OC(OC2CCCCC2OC(=O)NCCCC(C(=O)O)C(=O)O)C(O)C(O)C1O (configuration not stated) | 0.7 mM | 1 mM | 85% | 44% | 54% |

Continued, in another order:

| IC50 (HL-60 [1]) | IC50 (HL-60 [2]) | SMILES | inhibition in vivo at 10 mg/kg (Rattus norvegicus [3]) | inhibition in vivo at 3 mg/kg (Rattus norvegicus [4]) | inhibition in vivo at 1 mg/kg (Rattus norvegicus [5]) |
| --- | --- | --- | --- | --- | --- |
| > 5 mM | > 5 mM | CC1OC(OC2CCCCC2OCCCCCCC(C(=O)O)C(=O)O)C(O)C(O)C1O (configuration not stated) | – | – | – |
| 4.5 mM | 4 mM | CC1OC(OC2CCCCC2OC(=O)NCCCCC(C(=O)O)C(=O)O)C(O)C(O)C1O (configuration not stated) | – | – | – |
| > 5 mM | > 5 mM | CC1OC(OC2CCCCC2OCCCCCC(C(=O)O)C(=O)O)C(O)C(O)C1O (configuration not stated) | – | – | – |
| > 5 mM | > 5 mM | CC1OC(OC2CCCCC2OCCCC(C(=O)O)C(=O)O)C(O)C(O)C1O (configuration not stated) | – | – | – |
| > 5 mM | > 5 mM | CC1OC(OC2CCCCC2OCCCCCCCCCCC(C(=O)O)C(=O)O)C(O)C(O)C1O (configuration not stated) | – | – | – |
| > 5 mM | > 5 mM | CC1OC(OC2CCCCC2OCCCCC(C(=O)O)C(=O)O)C(O)C(O)C1O (configuration not stated) | – | – | – |
